# From US11261186B2, “Biaryl derivative as GPR120 agonist” (LG CHEM, LTD., priority 2014, dated 2022)
# Molecular target: T1, hGPR120 (Homo sapiens, UniProt Q5NUL3)
# T1 construct: expressed in transfected cells; host or cells: CHO-K1
# T1 sequence (Q5NUL3 1-361): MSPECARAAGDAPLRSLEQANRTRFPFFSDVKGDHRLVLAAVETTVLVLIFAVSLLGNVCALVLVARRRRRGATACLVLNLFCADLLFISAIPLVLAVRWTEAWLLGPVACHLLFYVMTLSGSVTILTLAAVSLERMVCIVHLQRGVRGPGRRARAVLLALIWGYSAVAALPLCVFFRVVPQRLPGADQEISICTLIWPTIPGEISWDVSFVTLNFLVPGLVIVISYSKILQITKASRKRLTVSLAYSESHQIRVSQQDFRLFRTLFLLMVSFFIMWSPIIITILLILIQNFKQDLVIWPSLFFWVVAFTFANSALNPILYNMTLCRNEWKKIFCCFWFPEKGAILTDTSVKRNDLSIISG
# Assay: Measurement of Activity of GPR120 Agonist (Cell-Based Assay), Calcium 5 dye fluorescence
# Settings: CHO-K1 cells expressing Ga16 and hGPR120
# Outline: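 CHO-K1 cells co-expressing Gα16 and hGPR120, plated 18 h, loaded 1 h at 37°C with Calcium 5 dye. Serially diluted agonists added at 0.5% DMSO final; fluorescence read at Ex 485/Em 525 nm and expressed as relative % of DMSO-only signal.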
row,SMILES,EC50 [nM]
1,"CC(CCCC(=O)O)c1c(F)cc(-c2cccc3c2OC2(CCCC2)O3)cc1F (centres unmarked) [Example 450, 5-(2,6-difluoro-4-spiro[1,3-benzodioxol-2,1′-cyclopentan]-4-yl-phenyl)hexanoic acid]",< 200
2,"CC(C)(C)Sc1cccc(-c2ccc3c(c2)CCC(CCC(=O)O)O3)n1 (centres unmarked) [Example 451, 3-[6-(6-tert-butylsulfanyl-2-pyridyl)chroman-2-yl]propanoic acid]",< 200
3,"CC(C)Oc1cccc(-c2ccc3c(c2)CCC(CCC(=O)O)O3)n1 (centres unmarked) [Example 452, 3-[6-(6-isopropoxy-2-pyridyl)chroman-2-yl]propanoic acid]",< 200
4,"O=C(O)CC1CCN(c2c(F)cc(-c3cccc4c3OC3(CCCC3)O4)cc2F)CC1 [Example 453, 2-[1-(2,6-difluoro-4-spiro[1,3-benzodioxol-2,1′-cyclopentan]-4-yl-phenyl)-4-piperidyl]acetic acid]",200 to 2000
5,"CCCOc1cccc(-c2cc(F)c(OCCCC(=O)O)c(F)c2)c1OCCC [Example 454, 4-[4-(2,3-dipropoxyphenyl)-2,6-difluoro-phenoxy]butanoic acid]",< 200
6,"COc1ccc(-c2cc(F)c(OCCCC(=O)O)c(F)c2)nc1OC1CCC1 [Example 455, 4-[4-[6-(cyclobutoxy)-5-methoxy-2-pyridyl]-2,6-difluoro-phenoxy]butanoic acid]",< 200
7,"COc1ccc(-c2cc(F)c(N(C)CCCC(=O)O)c(F)c2)nc1OC1CCC1 [Example 456, 4-[4-[6-(cyclobutoxy)-5-methoxy-2-pyridyl]-2,6-difluoro-N-methyl-anilino]butanoic acid]",< 200
8,"COc1ccc(-c2cc(F)c(N3CCC(CC(=O)O)CC3)c(F)c2)nc1OC1CCC1 [Example 457, 2-[1-[4-[6-(cyclobutoxy)-5-methoxy-2-pyridyl]-2,6-difluoro-phenyl]-4-piperidyl]acetic acid]",200 to 2000
9,"CCCOc1cccc(-c2cc(F)c(N3CCC(CC(=O)O)CC3)c(F)c2)c1OCCC [Example 458, 2-[1-[4-(2,3-dipropoxyphenyl)-2,6-difluoro-phenyl]-4-piperidyl]acetic acid]",200 to 2000
10,"COc1ccc(-c2cc(F)c(OCCCC(=O)O)c(F)c2)nc1OCC1CC1 [Example 459, 4-[4-[6-(cyclopropylmethoxy)-5-methoxy-2-pyridyl]-2,6-difluoro-phenoxy]butanoic acid]",< 200
11,"CCCOc1cccc(-c2cc(F)c(N(C)CCCC(=O)O)c(F)c2)c1OCCC [Example 460, 4-[4-(2,3-dipropoxyphenyl)-2,6-difluoro-N-methyl-anilino]butanoic acid]",200 to 2000
12,"COc1ccc(-c2cc(F)c(N(C)CCCC(=O)O)c(F)c2)nc1OCC1CC1 [Example 461, 4-[4-[6-(cyclopropylmethoxy)-5-methoxy-2-pyridyl]-2,6-difluoro-N-methyl-anilino]butanoic acid]",200 to 2000
13,"COc1ccc(-c2cc(F)c(N3CCC(CC(=O)O)CC3)c(F)c2)nc1OCC1CC1 [Example 462, 2-[1-[4-[6-(cyclopropylmethoxy)-5-methoxy-2-pyridyl]-2,6-difluoro-phenyl]-4-piperidyl]acetic acid]",200 to 2000
14,"O=C(O)CCCOc1c(F)cc(-n2ccc3ccc(Cl)cc32)cc1F [Example 463, 4-[4-(6-chloroindol-1-yl)-2,6-difluoro-phenoxy]butanoic acid]",< 200
15,"COc1ccc(-c2ccc(C(F)(F)CCCC(=O)O)cc2)nc1OC1CCC1 [Example 464, 5-[4-[6-(cyclobutoxy)-5-methoxy-2-pyridyl]phenyl]-5,5-difluoro-pentanoic acid]",< 200
16,"O=C(O)CCCOc1c(F)cc(-n2ccc3cc(F)ccc32)cc1F [Example 465, 4-[2,6-difluoro-4-(5-fluoroindol-1-yl)phenoxy]butanoic acid]",< 200
17,"CN(CCCC(=O)O)c1c(F)cc(-c2cccc(NCC3CC3)c2)cc1F [Example 466, 4-[4-[3-(cyclopropylmethylamino)phenyl]-2,6-difluoro-N-methyl-anilino]butanoic acid]",< 200
18,"CN(CCCC(=O)O)c1c(F)cc(-c2cccc(N3CCCC3)n2)cc1F [Example 467, 4-[2,6-difluoro-N-methyl-4-(6-pyrrolidin-1-yl-2-pyridyl)anilino]butanoic acid]",200 to 2000
19,"COc1ccc2c(ccn2-c2cc(F)c(OCCCC(=O)O)c(F)c2)c1 [Example 468, 4-[2,6-difluoro-4-(5-methoxyindol-1-yl)phenoxy]butanoic acid]",< 200
20,"N#Cc1ccc2c(ccn2-c2cc(F)c(OCCCC(=O)O)c(F)c2)c1 [Example 469, 4-[4-(5-cyanoindol-1-yl)-2,6-difluoro-phenoxy]butanoic acid]",2000 to 20000
21,"CN(CCCC(=O)O)c1c(F)cc(-c2occc2COCC2CC2)cc1F [Example 470, 4-[4-[3-(cyclopropylmethoxymethyl)-2-furyl]-2,6-difluoro-N-methyl-anilino]butanoic acid]",200 to 2000

row,SMILES,EC50 [nM]
1,"O=C(O)CCCOc1c(F)cc(-n2ccc3c(F)cccc32)cc1F [Example 471, 4-[2,6-difluoro-4-(4-fluoroindol-1-yl)phenoxy]butanoic acid]",< 200
2,"O=C(O)CCCOc1c(F)cc(-n2ccc3cccc(Cl)c32)cc1F [Example 472, 4-[4-(7-chloroindol-1-yl)-2,6-difluoro-phenoxy]butanoic acid]",< 200
3,"CN(CCCC(=O)O)c1c(F)cc(-c2ccc(COCC3CC3)o2)cc1F [Example 473, 4-[4-[5-(cyclopropylmethoxymethyl)-2-furyl]-2,6-difluoro-N-methyl-anilino]butanoic acid]",200 to 2000
4,"O=C(O)CCCOc1c(F)cc(-n2ccc3ccc(OCC4CC4)cc32)cc1F [Example 474, 4-[4-[6-(cyclopropylmethoxy)indol-1-yl]-2,6-difluoro-phenoxy]butanoic acid]",< 200
5,"CN(CCCC(=O)O)c1c(F)cc(-n2ccc3cccc(Cl)c32)cc1F [Example 475, 4-[4-(7-chloroindol-1-yl)-2,6-difluoro-N-methyl-anilino]butanoic acid]",< 200
6,"O=C(O)CCCOc1c(F)cc(-n2ccc3ccc(OC4CCC4)cc32)cc1F [Example 476, 4-[4-[6-(cyclobutoxy)indol-1-yl]-2,6-difluoro-phenoxy]butanoic acid]",< 200
7,"O=C(O)CCCOc1c(F)cc(-n2ccc3cc(OC4CCC4)ccc32)cc1F [Example 477, 4-[4-[5-(cyclobutoxy)indol-1-yl]-2,6-difluoro-phenoxy]butanoic acid]",200 to 2000
8,"COc1cccc2c1ccn2-c1cc(F)c(OCCCC(=O)O)c(F)c1 [Example 478, 4-[2,6-difluoro-4-(4-methoxyindol-1-yl)phenoxy]butanoic acid]",200 to 2000
9,"COc1cccc2ccn(-c3cc(F)c(OCCCC(=O)O)c(F)c3)c12 [Example 479, 4-[2,6-difluoro-4-(7-methoxyindol-1-yl)phenoxy]butanoic acid]",< 200
10,"COCc1ccc2c(cnn2-c2cc(F)c(OCCCC(=O)O)c(F)c2)c1 [Example 480, 4-[2,6-difluoro-4-[5-(methoxymethyl)indazol-1-yl]phenoxy]butanoic acid]",2000 to 20000
11,"O=C(O)CC1CCN(c2c(F)cc(-n3ccc4cccc(Cl)c43)cc2F)CC1 [Example 481, 2-[1-[4-(7-chloroindol-1-yl)-2,6-difluoro-phenyl]-4-piperidyl]acetic acid]",2000 to 20000
12,"O=C(O)CCCOc1c(F)cc(-n2ncc3ccc(OC4CCC4)cc32)cc1F [Example 482, 4-[4-[6-(cyclobutoxy)indazol-1-yl]-2,6-difluoro-phenoxy]butanoic acid]",< 200
13,"O=C(O)CCCOc1c(F)cc(-n2ncc3ccc(OC4CCC4)cc32)cc1Cl [Example 483, 4-[2-chloro-4-[6-(cyclobutoxy)indazol-1-yl]-6-fluoro-phenoxy]butanoic acid]",< 200
14,"Cc1cc(OC2CCC2)nc(-c2cc(F)c(N(C)CCCC(=O)O)c(F)c2)n1 [Example 484, 4-[4-[4-(cyclobutoxy)-6-methyl-pyrimidin-2-yl]-2,6-difluoro-N-methyl-anilino]butanoic acid]",< 200
15,"CN(CCCC(=O)O)c1c(F)cc(-c2nccc(OC3CCC3)n2)cc1F [Example 485, 4-[4-[4-(cyclobutoxy)pyrimidin-2-yl]-2,6-difluoro-N-methyl-anilino]butanoic acid]",< 200
16,"CN(CCCC(=O)O)c1c(F)cc(-c2csc(OC3CCC3)n2)cc1F [Example 486, 4-[4-[2-(cyclobutoxy)thiazol-4-yl]-2,6-difluoro-N-methyl-anilino]butanoic acid]",< 200
17,"O=C(O)CC1CCN(c2c(F)cc(-n3ncc4ccc(OC5CCC5)cc43)cc2F)CC1 [Example 487, 2-[1-[4-[6-(cyclobutoxy)indazol-1-yl]-2,6-difluoro-phenyl]-4-piperidyl]acetic acid]",200 to 2000
18,"CN(CCCC(=O)O)c1c(F)cc(-c2cncc(OC3CCC3)n2)cc1F [Example 488, 4-[4-[6-(cyclobutoxy)pyrazin-2-yl]-2,6-difluoro-N-methyl-anilino]butanoic acid]",< 200
19,"Cc1cc(OCC2CC2)nc(-c2cc(F)c(N(C)CCCC(=O)O)c(F)c2)n1 [Example 489, 4-[4-[4-(cyclopropylmethoxy)-6-methyl-pyrimidin-2-yl]-2,6-difluoro-N-methyl-anilino]butanoic acid]",< 200
20,"CN(CCCC(=O)O)c1c(F)cc(-c2nccc(OCC3CC3)n2)cc1F [Example 490, 4-[4-[4-(cyclopropylmethoxy)pyrimidin-2-yl]-2,6-difluoro-N-methyl-anilino]butanoic acid]",< 200
